Source: paper PMC7503500, “A Structure-Activity Relationship Comparison of Imidazodiazepines Binding at Kappa, Mu, and Delta Opioid Receptors and the GABAA Receptor” (Molecules, 2020)
Read-outs that look alike come from different tables or passages of the source.

How the values were obtained:
[1] = test system: synaptic benzodiazepine-sensitive receptors (BZR), GABAAR; experiment: 3H-flunitrazepam binding, rat brain homogenate; settings: for BZR % (percent inhibition): at 10,000 nM; for Ki: read-out: BZR (Ki)
µ opioid receptor (MOR) = µ opioid receptor (MOR) (Homo sapiens, UniProt P35372); experiment: Radioligand competition binding, MOR ([3H]-DAMGO), HEK293 cell homogenates; settings: [3H]-DAMGO; for inhibition at 10 µM: read-out: MOR % (percent inhibition), at 10,000 nM; for MOR % (percent inhibition): at 10,000 nM
δ opioid receptor (DOR) = δ opioid receptor (DOR) (Homo sapiens, UniProt P41143); experiment: Radioligand competition binding, DOR ([3H]-DADLE), HEK293 cell homogenates; settings: for inhibition at 10 µM: read-out: DOR % (percent inhibition), at 10,000 nM; for DOR % (percent inhibition): at 10,000 nM
κ opioid receptor (KOR) = κ opioid receptor (KOR) (Homo sapiens, UniProt P41145); experiment: Radioligand competition binding, KOR ([3H]-U69593), HEK293 cell homogenates; settings: for inhibition at 10 µM: read-out: KOR % (percent inhibition), at 10,000 nM; for inhibition at 10 µM / KOR % (percent inhibition): [3H]-U69593; for KOR % (percent inhibition): at 10,000 nM
[2] = read-out: KOR (Ki), [3H]-U69593, HEK293 homogenates

| Structure (SMILES) | BZR % (percent inhibition) [1] [%] | Ki [1] [µM] | inhibition at 10 µM (µ opioid receptor (MOR)) [%] | inhibition at 10 µM (δ opioid receptor (DOR)) [%] | Ki (κ opioid receptor (KOR)) [µM] | inhibition at 10 µM (κ opioid receptor (KOR)) [%] | MOR % (percent inhibition) (µ opioid receptor (MOR)) [%] | DOR % (percent inhibition) (δ opioid receptor (DOR)) [%] | KOR % (percent inhibition) (κ opioid receptor (KOR)) [%] | Ki (κ opioid receptor (KOR); [2]) [µM] | Affinity towards KOR as % of the GL-I-30-KOR binding affinity (κ opioid receptor (KOR)) [%] |
| --- | --- | --- | --- | --- | --- | --- | --- | --- | --- | --- | --- |
| C#Cc1ccc2c(c1)C(c1ccccc1F)=N[C@H](C)c1c(C(N)=O)ncn1-2 [MP-III-019.B] | 94 | 0.054 | 2 | 0 | 1.53 | 62 | – | – | – | – | – |
| C#Cc1ccc2c(c1)C(c1ccccc1F)=N[C@@H](C)c1c(C(=O)OC(C)C)ncn1-2 [GL-I-31] | 97 | 0.245 | 32 | 8 | 0.065 | 94 | – | – | – | – | – |
| C#Cc1ccc2c(c1)C(c1ccccc1F)=NCc1c(-c3cnco3)ncn1-2 [KRM-II-18B] | 97 | 0.038 | 11 | 20 | 0.361 | 89 | – | – | – | – | – |
| CCOC(=O)c1ncn2c1[C@@H](C)N=C(c1ccccn1)c1cc(Br)ccc1-2 [GL-II-06] | 81 | 0.556 | 11 | 9 | 0.401 | 79 | – | – | – | – | – |
| Cc1noc(-c2ncn3c2[C@@H](C)N=C(c2ccccc2F)c2cc(Br)ccc2-3)n1 [GL-III-60] | 100 | 0.784 | – | – | – | – | 26 | 18 | 87 | 0.232 | – |
| C#Cc1ccc2c(c1)C(c1ccccc1F)=N[C@@H](C)c1c(C(=O)OCC(F)(F)F)ncn1-2 [GL-I-36] | 77 | 0.418 | 8 | 0 | 0.411 | 85 | – | – | – | – | – |
| C#Cc1ccc2c(c1)C(c1ccccc1F)=N[C@@H](C)c1c(C(=O)OCCC)ncn1-2 [GL-I-32] | 98 | 0.148 | 9 | 14 | 0.064 | 95 | – | – | – | – | – |
| C#Cc1ccc2c(c1)C(c1ccccn1)=NCc1c(-c3nc(C)no3)ncn1-2 [MP-III-085] | 82 | 0.357 | 0 | 0 | – | 40 | – | – | – | – | – |
| C#Cc1ccc2c(c1)C(c1ccccc1F)=N[C@@H](C)c1c(-c3cnco3)ncn1-2 [GL-III-78] | 101 | 0.261 | – | – | – | – | 10 | 9 | 74 | 0.451 | – |
| C#Cc1ccc2c(c1)C(c1ccccc1F)=N[C@@H](C)c1c(C(=O)OC)ncn1-2 [MP-III-021] | 88 | 0.219 | 0 | 22 | 0.122 | 93 | – | – | – | – | – |
| C#Cc1ccc2c(c1)C(c1ccccn1)=NCc1c(C(=O)OC)ncn1-2 [MP-III-024] | 81 | 0.277 | 0 | 24 | – | 43 | – | – | – | – | – |
| C#Cc1ccc2c(c1)C(c1ccccc1F)=N[C@H](C)c1c(C(=O)O)ncn1-2 [SH-053-2′F-R-CH3-Acid] | 93 | 0.037 | 0 | 0 | – | 16 | – | – | – | – | – |
| CCOC(=O)c1ncn2c1[C@H](C)N=C(c1ccccc1F)c1cc(C3CC3)ccc1-2 [GL-I-78] | 76 | 0.352 | – | – | – | – | 32 | 41 | 96 | – | – |
| C#Cc1ccc2c(c1)C(c1ccccn1)=NCc1c(C(=O)O)ncn1-2 [SR-II-54] | 80 | 0.069 | 8 | 1 | – | 9 | – | – | – | – | – |
| C#Cc1ccc2c(c1)C(c1ccccc1F)=N[C@@H](C)c1c(C(=O)O)ncn1-2 [SH-053-2′F-S-CH3-Acid] | 93 | 0.029 | 0 | 18 | – | 20 | – | – | – | – | – |
| C#Cc1ccc2c(c1)C(c1ccccc1F)=N[C@@H](C)c1c(C(=O)OC(C)(C)CC)ncn1-2 [GL-I-33] | 96 | 0.117 | 30 | 25 | 0.034 | 94 | – | – | – | – | – |
| CCOC(=O)c1ncn2c1[C@H](C)N=C(c1ccccc1F)c1cc(Br)ccc1-2 [SH-I-048B] | 61 | 0.096 | – | – | – | – | 0 | 0 | 95 | – | – |
| COC(=O)c1ncn2c1[C@@H](C)N=C(c1ccccc1F)c1cc(Br)ccc1-2 [MP-III-058] | 86 | 0.29 | 0 | 4 | 0.237 | 84 | – | – | – | – | – |
| C#Cc1ccc2c(c1)C(c1ccccc1F)=N[C@@H](C)c1c(-c3nc(C)no3)ncn1-2 [GL-I-65] | 79 | 1.15 | – | – | – | – | 2 | 7 | 88 | 0.222 | – |
| C#Cc1ccc2c(c1)C(c1ccccn1)=NCc1c(C(=O)OC(C)C)ncn1-2 [MP-II-068] | 97 | 0.042 | 0 | 34 | 0.55 | 85 | – | – | – | – | 4.9 |
| Brc1ccc2c(c1)C(c1ccccn1)=NCc1c(-c3cnco3)ncn1-2 [KRM-II-97] | 93 | 0.14 | 18 | 8 | 1.96 | 62 | – | – | – | – | – |
| C#Cc1ccc2c(c1)C(c1ccccc1F)=N[C@@H](C)c1c(C(=O)NCC)ncn1-2 [GL-I-43] | 94 | 0.044 | 22 | 3 | 0.102 | 95 | – | – | – | – | – |
| C#Cc1ccc2c(c1)C(c1ccccn1)=N[C@H](C)c1c(C(=O)OCC)ncn1-2 [GL-II-19] | 71 | 1.14 | 17 | 2 | – | 44 | – | – | – | – | – |
| C#Cc1ccc2c(c1)C(c1ccccc1F)=N[C@H](C)c1c(C(=O)N3CCCC3)ncn1-2 [GL-II-76] | 43 | – | 0 | 0 | 0.371 | 80 | – | – | – | – | – |
| C#Cc1ccc2c(c1)C(c1ccccc1F)=NCc1c(C(=O)OCc3ccccc3)ncn1-2 [MP-II-075] | 98 | 0.021 | 0 | 16 | – | 84 | – | – | – | 0.547 | – |
| C#Cc1ccc2c(c1)C(c1ccccc1F)=N[C@H](C)c1c(C(=O)NC)ncn1-2 [MP-III-022] | 95 | 0.083 | 3 | 22 | – | 80 | – | – | – | – | – |
| C[C@@H]1N=C(c2ccccc2F)c2cc(Br)ccc2-n2cnc(-c3cnco3)c21 [GL-III-76] | 100 | 0.12 | – | – | – | – | 3 | 0 | 83 | 0.221 | – |
